Reference: patent US12653805B2, “Targeting LASP1, eIF4A1, eIF4B and CXC4 with modulators and combinations thereof for cancer therapy” (The University of Toledo, priority 2019, dated 2026)

Columns and labels:
[1] = system: MDA-MB-231 cells; conditions: cited from earlier work
[2] = system: LASP1-eIF4A/eIF4B association in 231S cells; assay: Co-immunoprecipitation of LASP1 with eIF4A/eIF4B; assay type: cell-based, human
Experimental: Subconfluent 231S cells were serum-starved for 1 hour and stimulated with 10-20 nM CXCL12 (PeptroTech, Rocky Hill, N.J., Cat. No. 300-28A) over different time points. […] Total protein in the clarified lysate was quantified using a Bradford protein assay (Bio-Rad, Hercules, Calif., Cat. No. 5000006). 1 mg of total protein lysate was employed in all immunoprecipitation reactions. eIF4B was immunoprecipitated by using 2 μg of eIF4B antibody (Cell Signaling Technology, Danvers, Mass., Cat. No. 13088). Mouse (G3A1) mAb IgG1 Isotype Control (Cell Signaling Technology, Danvers, Mass., Cat. No. 5415) served as the mock control. Next, eIF4A was immunoprecipitated using 2 μg of eIF4A1 antibody (Cohesion Biosciences, London, Purley, Cat. No. CQA1180). His-Tag (D3L10) XP® Rabbit mAb (Cell Signaling Technology, Danvers, Mass., Cat. No. 12698) was employed for the mock condition. Finally, in the reciprocal Co-IP, LASP1 was immunoprecipitated by using 2 μg LASP1 antibody (Biolegend, San Diego, Calif., Cat. No. 909301). As in the eIF4B Co-IP, mouse (G3A1) IgG1 isotype mAb was employed as the mock control. […] Proteins of interest were analyzed by sodium dodecyl sulfate-polyacrylamide gel electrophoresis (SDS-PAGE) and Western blotting.

[3] = system: CXCR4 signaling in 231S cells; assay: Western blotting of phosphorylation of eIF4B, PDCD4, 4E-BP1 after CXCR4 activation; assay type: cell-based, human
Experimental: (§1) Cell lysates were prepared and quantified as described. Western blots were incubated with the following 1° Abs: Cyclin D1 (Cell Signaling Technology, Danvers, Mass., Cat. No. 2922), eIF4A C32B4 (Cell Signaling Technology, Danvers, Mass., Cat. No. 2013), eIF4B 1F5 (Cell Signaling Technology, Danvers, Mass., Cat. No. 13088), p-eIF4B S422 (Thermo Scientific, Rockford, Ill., Cat No. PA5-38362), eIF4E C46H6 (Cell Signaling Technology, Danvers, Mass., Cat. No. 2067), eIF4G C45A4 (Cell Signaling Technology, Danvers, Mass., Cat. No. 2469), GST 26H1 (Cell Signaling Technology, Danvers, Mass., Cat. No. 2624), LASP1 8C6 (Biolegend, San Diego, Calif., Cat. No. 909301), MDM2 SMP14 (Santa Cruz Biotechnology, Dallas, Tex., Cat. No. sc-965), PDCD4 D29C6 (Cell Signaling Technology, Danvers, Mass., Cat. No. 9535), p-PDCD4 S67 (Sigma-Aldrich, St. Louis, Mo., Cat. No. P0072), ROCK1 C8F7 (Cell Signaling Technology, Danvers, Mass., Cat. No. 4035), survivin 71G4B7 (Cell Signaling Technology, Danvers, Mass., Cat. No. 2808), 4E-BP1 53H11 (Cell Signaling Technology, Danvers, Mass., Cat. No. 9644), p-4E-BP1 Thr70 (Cell Signaling Technology, Danvers, Mass., Cat. No. 9455), and β-tubulin D66 (Sigma/Aldrich, St. Louis, Mo., Cat. No. T0198). Following primary incubation, Western blots were incubated with Goat anti-Mouse IgG (H+L) Superclonal™ Secondary Ab conjugated to HRP (Thermo Scientific, Rockford, Ill., Cat No. A28177) or Goat anti-Rabbit IgG (H+L) Superclonal™ Secondary Ab conjugated to HRP (Thermo Scientific, Rockford, Ill., Cat No. A27036). Finally, blots were developed with Amersham™ ECL™ Prime Western Blotting Detection Reagent (GE Healthcare Life Sciences, Pittsburgh, Pa., Cat. No. RPN2232) and HyBlot ES™ Autoradiography Film (Denville Scientific, Swedesboro, N.J., Cat. No. E3212). Densitometry of the Western blots was performed using ImageJ. Calculation of fold change is given in the figure legend for each experiment.

[4] = system: eIF4F complex in 231S cells; assay: m7GTP pulldown assay (eIF4F complex); assay type: cell-based, human
Experimental: 231S cells were serum starved for 1 h and cells were stimulated (and prepared) as described in the co-immunoprecipitation section. 100 nM AMD3465 (CXCR4 antagonist, Sigma-Aldrich, St. Louis, Mo., Cat. No. SML1433-5MG) was incubated 30 min prior to stimulation. 1 mg of total protein lysate in 1 mL of Co-IP buffer was incubated with 25 μL of m7-GTP agarose beads overnight at 4° C. (Jena Biosciences, Jena, Germany, Cat. No. AC-155S). Following incubation, beads were washed with Co-IP buffer. Protein was eluted and analyzed by SDS-PAGE and Western blotting.

[5] = system: LASP1-eIF4A interaction in 231S cells; assay: Proximity ligation assay (PLA) of LASP1-eIF4A interaction; assay type: cell-based, human
Experimental: The Duolink In Situ Orange Fluorescent kit (Sigma/Aldrich, St. Louis, Mo., Cat. No. DUO92102-1KT) was employed to detect the endogenous interaction between LASP1 and eIF4A in situ in 231S cells. The PLA was performed according to the manufacturer's instructions using a rabbit eIF4A1 antibody (Cohesion Biosciences, London, Purley, Cat. No. CQA1180) and a mouse LASP1 antibody (Biolegend, San Diego, Calif., Cat. No. 909301). The single Ab control condition represents the PLA reaction with only the LASP1 antibody. In addition, cells were stained with phalloidin (Life Technologies, Carlsbad, Calif., Cat. No. A12379) and nuclei with DRAQ5 (Thermo Scientific, Rockford, Ill., Cat No. 62251). Cells were stimulated and inhibited as described. Moreover, cells were fixed, stained, and permeabilized with standard methods. The images were acquired by two-photon confocal microscopy and processed with Leica Application Suite X software (Leica, Wetzlar, Germany). Quantification of the interaction dots was performed using ImageJ.

[6] = system: 231S LASP1 NS cells; assay: Western blotting of eIF4A-dependent genes after CXCL12 stimulation; assay type: cell-based, human; conditions: control-silenced (LASP1 NS) 231S cells, 10-20 nM CXCL12
Experimental: as §1, with “Following primary incubation, Western blots were incubated with Goat anti-Mouse IgG (H+L) Superclonal™ Secondary Ab conjugated to HRP (Thermo Scientific, Rockford, Ill., Cat No. A28177) or Goat anti-Rabbit IgG (H+L) Superclonal™ Secondary Ab conjugated to HRP (Thermo Scientific, Rockford, Ill., Cat No. A27036). Finally, blots were developed with Amersham™ ECL™ Prime Western Blotting Detection Reagent (GE Healthcare Life Sciences, Pittsburgh, Pa., Cat. No. RPN2232) and HyBlot ES™ Autoradiography Film (Denville Scientific, Swedesboro, N.J., Cat. No. E3212). Densitometry of the Western blots was performed using ImageJ. Calculation of fold change is given in the figure legend for each experiment.” left out

Compound | IC50 [1] | increase in association of LASP1 with eIF4B (reciprocal Co-IP) ([2]; 20 nM CXCL12, 0 min set to 1) | association of endogenous LASP1 and eIF4A1 (reciprocal Co-IP) ([2]; 20 nM CXCL12, 5 min, 0 min set to 1) | phosphorylation of PDCD4 (pS67) ([3]; CXCL12, 5 min) | phosphorylation of PDCD4 (pS67) ([3]; CXCL12, peak at 10 min) | eIF4G-eIF4E interaction (eIF4G recruitment) ([4]; 20 nM CXCL12, 20 min) | association of endogenous LASP1 with eIF4E ([4]; 20 nM CXCL12, peak at 5 min) | eIF4G-eIF4E interaction (eIF4G recruitment) ([4]; 20 nM CXCL12, peak at 5 min) | stimulation of the interaction between LASP1 and eIF4A ([5]; CXCL12 5 min vs unstimulated) | LASP1-eIF4A interaction dots (interactions/cell) ([5]; CXCL12 incubation for 5 min (20 nM), unstimulated 11.6±6.5) | protein levels of CCND1, BIRC5, Mdm2, and ROCK1 [6]
COC(=O)[C@H]1[C@@H](O)[C@@]2(O)c3c(OC)cc(O[C@@H]4O[C@@H]([C@H](O)CO)CO[C@H]4OC)cc3O[C@@]2(c2ccc(OC)cc2)[C@@H]1c1ccccc1 [Silvestrol] | 60 nM |  |  |  |  |  |  |  |  |  | 
CXCL12: ligand for CXCR4 (PeproTech), used to stimulate cells |  | 7.5 fold | 19.1 fold | 3.3 fold | 3.9 fold | 2.2 fold | 2.2 fold | 4.4 fold | 3 fold | 118±58.3 dots | considerable increases
